pEC50, pIC50: −log10 of the molar value.
Key:
[1] = biological target: T1, HCV NS5B (Hepatitis C virus genotype 1b, UniProt Q9WMX2); experiment: HCV NS5B RdRp enzyme assay; format: biochemical; conditions: HCV NS5B RdRp genotype 1b; standard or modified assay not specified
T1 construct: The protein was expressed with an 18 amino acid C-terminal truncation to enhance the solubility; made in house; host or cells: E. coli BL21(DE3)
Procedure: HCV NS5B RdRp cloning, expression, and purification. The cDNA encoding the NS5B protein of HCV, genotype 1b, was cloned into the pET21a expression vector. The protein was expressed with an 18 amino acid C-terminal truncation to enhance the solubility. The E. coli competent cell line BL21(DE3) was used for expression of the protein. Cultures were grown at 37° C. for ˜4 hours until the cultures reached an optical density of 2.0 at 600 nm. The cultures were cooled to 20° C. and induced with 1 mM IPTG. Fresh ampicillin was added to a final concentration of 50 μg/ml and the cells were grown overnight at 20° C.
Cell pellets (3 L) were lysed for purification to yield 15-24 mgs of purified NS5B. The lysis buffer consisted of 20 mM Tris-HCl, pH 7.4, 500 mM NaCl, 0.5% triton X-100, 1 mM DTT, 1 mM EDTA, 20% glycerol, 0.5 mg/ml lysozyme, 10 mM MgCl2, 15 ug/ml deoxyribonuclease I, and Complete TM protease inhibitor tablets (Roche). After addition of the lysis buffer, frozen cell pellets were resuspended using a tissue homogenizer. To reduce the viscosity of the sample, aliquots of the lysate were sonicated on ice using a microtip attached to a Branson sonicator. The sonicated lysate was centrifuged at 100,000×g for 1 hr at 4° C. and filtered through a 0.2 μm filter unit (Corning).
The protein was purified using three sequential chromatography steps: Heparin sepharose CL-6B, polyU sepharose 4B, and Hitrap SP sepharose (Pharmacia). The chromatography buffers were identical to the lysis buffer but contained no lysozyme, deoxyribonuclease I, MgCl2 or protease inhibitor and the NaCl concentration of the buffer was adjusted according to the requirements for charging the protein onto the column. Each column was eluted with a NaCl gradient which varied in length from 5-50 column volumes depending on the column type. After the final chromatography step, the resulting purity of the enzyme is >90% based on SDS-PAGE analysis. The enzyme was aliquoted and stored at −80° C.
Standard HCV NS5B RdRp enzyme assay. HCV RdRp genotype 1b assays were run in a final volume of 60 μl in 96 well plates (Costar 3912). The assay buffer is composed of 20 mM Hepes, pH 7.5, 2.5 mM KCl, 2.5 mM MgCl2, 1 mM DTT, 1.6 U RNAse inhibitor (Promega N2515), 0.1 mg/ml BSA (Promega R3961), and 2% glycerol. All compounds were serially diluted (3-fold) in DMSO and diluted further in water such that the final concentration of DMSO in the assay was 2%. HCV RdRp genotype 1b enzyme was used at a final concentration of 28 nM. A polyA template was used at 6 nM, and a biotinylated oligo-dT12 primer was used at 180 nM final concentration. Template was obtained commercially (Amersham 27-4110). Biotinylated primer was prepared by Sigma Genosys. 3H-UTP was used at 0.6 μCi (0.29 μM total UTP). Reactions were initiated by the addition of enzyme, incubated at 30° C. for 60 min, and stopped by adding 25 μl of 50 mM EDTA containing SPA beads (4 μg/μl, Amersham RPNQ 0007). Plates were read on a Packard Top Count NXT after >1 hr incubation at room temperature.
Modified HCV NS5B RdRp enzyme assay. A modified enzyme assay was performed essentially as described for the standard enzyme assay except for the following: The biotinylated oligo dT12 primer was precaptured on streptavidin-coated SPA beads by mixing primer and beads in assay buffer and incubating at room temperature for one hour. Unbound primer was removed after centrifugation. The primer-bound beads were resuspended in 20 mM Hepes buffer, pH 7.5 and used in the assay at final concentrations of 20 nM primer and 0.67 μg/μl beads. Order of addition in the assay: enzyme (14 nM) was added to diluted compound followed by the addition of a mixture of template (0.2 nM), 3H-UTP (0.6 μCi, 0.29 μM), and primer-bound beads, to initiate the reaction; concentrations given are final. Reactions were allowed to proceed for 4 hours at 30° C.
IC50 values for compounds were determined using seven different [I]. […]

[2] = system: HCV replicon; experiment: HCV replicon assay (FRET / luciferase reporter); format: cell-based, HCV (HUH-7 cells); conditions: Hepatitis C virus; HCV replicon cells
From the text: FRET Assay Preparation. To perform the HCV FRET screening assay, 96-well cell culture plates were used. The FRET peptide (Anaspec, Inc.) (Taliani et al., Anal. Biochem. 1996, 240, 60-67) contains a fluorescence donor, EDANS, near one end of the peptide and an acceptor, DABCYL, near the other end. The fluorescence of the peptide is quenched by […] resonance energy transfer (RET) between the donor and the acceptor, but as the NS3 protease cleaves the peptide the products are released from RET quenching and the fluorescence of the donor becomes apparent. The assay reagent was made as follows: 5× cell Luciferase cell culture lysis reagent from Promega (#E153A) diluted to 1× with dH2O, NaCl added to 150 mM final, the FRET peptide diluted to 20 μM final from a 2 mM stock.
To prepare plates, HCV replicon cells, with or without a Renilla luciferase reporter gene, were trypsinized and placed into each well of a 96-well plate with titrated test compounds added in columns 3 through 12; columns 1 and 2 contained a control compound (HCV protease inhibitor), and the bottom row contained cells without compound. The plates were then placed in a CO2 incubator at 37° C.
Assays. Subsequent to addition of the test compounds described above (FRET Assay Preparation), at various times the plate was removed and Alamar blue solution (Trek Diagnostics, #00-100) was added per well as a measure of cellular toxicity. After reading in a Cytoflour 4000 instrument (PE Biosystems), plates were rinsed with PBS and then used for FRET assay by the addition of 30 ul of the FRET peptide assay reagent described above (FRET Assay Preparation) per well. The plate was then placed into the Cytoflour 4000 instrument which had been set to 340 excite/490 emission, automatic mode for 20 cycles and the plate read in a kinetic mode. Typically, the signal to noise using an endpoint analysis after the reads was at least three-fold. Alternatively, after Alamar blue reading, plates were rinsed with PBS, 50 ul of DMEM (high glucose) without phenol red was added and plates were then used for luciferase assay using the Promega Dual-Glo Luciferase Assay System.
Compound analysis was determined by quantification of the relative HCV replicon inhibition and the relative cytotoxicity values. To calculate cytoxicity values, the average Alamar Blue fluorescence signals from the control wells were set as 100% non-toxic. The individual signals in each of the compound test wells were then divided by the average control signal and multiplied by 100% to determine […]. To calculate the HCV replicon inhibition values, an average background value was obtained from the two wells containing the highest amount of HCV protease inhibitor at the end of the assay period. These numbers were similar to those obtained from naïve Huh-7 cells.
The background numbers were then subtracted from the average signal obtained from the control wells and this number was used as 100% activity. The individual signals in each of the compound test wells were then divided by the averaged control values after background subtraction and multiplied by 100% to determine percent activity. EC50 values for a protease inhibitor titration were calculated as the concentration which caused a 50% reduction in FRET or luciferase activity. The two numbers generated for the compound plate, percent cytoxicity and percent activity were used to determine compounds of interest for further analysis.
The HCV replicon luciferase assay was developed to monitor the inhibitory effects of compounds described in the disclosure on HCV viral replication. Utilization of a replicon luciferase reporter assay was first described by Krieger et al (Krieger N, Lohmann V, and Bartenschlager R, J. Virol. 75(10):4614-4624 (2001)). HUH-7 cells, constitutively expressing the HCV replicon, were grown in Dulbecco's Modified Eagle Media (DMEM) (Gibco-BRL) containing 10% Fetal calf serum (FCS) (Sigma) and 1 mg/ml G418 (Gibco-BRL). […]

T1 sequence (Q9WMX2 2420-2992): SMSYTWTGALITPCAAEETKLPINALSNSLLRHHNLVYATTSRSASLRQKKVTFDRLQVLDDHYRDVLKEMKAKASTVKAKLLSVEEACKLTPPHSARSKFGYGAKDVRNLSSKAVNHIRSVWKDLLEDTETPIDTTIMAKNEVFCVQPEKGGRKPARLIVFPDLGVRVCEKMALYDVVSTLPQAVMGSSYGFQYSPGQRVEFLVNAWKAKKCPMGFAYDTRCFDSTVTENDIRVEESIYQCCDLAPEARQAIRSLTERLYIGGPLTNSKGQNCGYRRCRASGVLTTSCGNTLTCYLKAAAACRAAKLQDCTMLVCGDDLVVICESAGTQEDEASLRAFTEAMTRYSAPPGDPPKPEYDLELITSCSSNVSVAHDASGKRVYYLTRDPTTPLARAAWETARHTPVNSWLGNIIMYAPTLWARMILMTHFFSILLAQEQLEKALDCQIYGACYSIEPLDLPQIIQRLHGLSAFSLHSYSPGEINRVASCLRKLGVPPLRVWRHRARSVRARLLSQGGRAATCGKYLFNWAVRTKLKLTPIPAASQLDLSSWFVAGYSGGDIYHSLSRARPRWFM

SMILES	pIC50 [1]	pEC50 [2]
CNC(=O)c1c(-c2ccc(F)cc2)oc2ccc(-c3cc(C(=O)NC4(c5ccc6[nH]ccc6n5)CC4)ccc3C)c(F)c12	7.70	8.15
CNC(=O)c1c(-c2ccc(F)cc2)oc2ccc(-c3cc(C(=O)NC4(c5nccc6[nH]ccc56)CC4)ccc3C)c(F)c12		7.22
CNC(=O)c1c(-c2ccc(F)cc2)oc2ccc(-c3cc(C(=O)NC4(c5ccc6cccnc6n5)CC4)ccc3C)cc12	8.52	7.40
CNC(=O)c1c(-c2ccc(F)cc2)oc2ccc(-c3cc(C(=O)NC4(c5ccc6ccncc6n5)CC4)ccc3C)cc12	8.30	8.52
CNC(=O)c1c(-c2ccc(F)cc2)oc2ccc(-c3cc(C(=O)NC4(c5ccc6ccncc6n5)CC4)ccc3C)c(F)c12	7.70	8.22
CNC(=O)c1c(-c2ccc(F)cc2)oc2ccc(-c3cc(C(=O)NC4(c5ccc6cnccc6n5)CC4)ccc3C)cc12	8.10	8.70
CNC(=O)c1c(-c2ccc(F)cc2)oc2ccc(-c3cc(C(=O)NC4(c5ccc6ccncc6n5)CC4)cc(F)c3C)c(F)c12	8.00	8.05
CNC(=O)c1c(-c2ccc(F)cc2)oc2ccc(-c3cc(C(=O)NC4(c5ccc6cccnc6n5)CC4)cc(F)c3C)c(F)c12	8.00	7.15
CNC(=O)c1c(-c2ccc(F)cc2)oc2ccc(-c3cc(C(=O)NC4(c5ccc6cnccc6n5)CC4)cc(F)c3C)c(F)c12	8.15	8.22
CNC(=O)c1c(-c2ccc(F)cc2)oc2ccc(-c3cc(C(=O)NC4(c5ccc6ncccc6n5)CC4)ccc3C)c(F)c12	8.00	7.52
CNC(=O)c1c(-c2ccc(F)cc2)oc2ccc(-c3cc(C(=O)NC4(c5ccc6ncccc6n5)CC4)ccc3C)cc12	8.00	7.52
CNC(=O)c1c(-c2ccc(F)cc2)oc2ccc(-c3cc(C(=O)NC4(c5ccc6ccncc6n5)CC4)c(OC)cc3OCC(N)=O)cc12	8.30	8.40
CNC(=O)c1c(-c2ccc(F)cc2)oc2ccc(-c3cc(C(=O)NC4(c5ncc6cnccc6n5)CC4)ccc3C)c(F)c12	8.22	7.70
CNC(=O)c1c(-c2ccc(F)cc2)oc2ccc(-c3cc(C(=O)NC4(c5nc6cnccc6o5)CC4)ccc3C)c(F)c12	7.70	8.40
CNC(=O)c1c(-c2ccc(F)cc2)oc2ccc(-c3cc(C(=O)NC4(c5nc6cnccc6o5)CC4)c(OC)cc3C)c(F)c12	7.40	9.00
CNC(=O)c1c(-c2ccc(F)cc2)oc2ccc(-c3cc(C(=O)NC4(c5nc6cnccc6o5)CC4)ccc3C)cc12	7.70	9.00
CNC(=O)c1c(-c2ccc(F)cc2)oc2ccc(-c3cc(C(=O)NC4(c5nc6cnccc6o5)CC4)c(OC)cc3C)cc12	8.00	9.00
CNC(=O)c1c(-c2ccc(F)cc2)oc2ccc(-c3cc(C(=O)N[C@@H](C)c4nc5cnccc5o4)c(OC)cc3C)c(F)c12	7.22	7.70
CNC(=O)c1c(-c2ccc(F)cc2)oc2ccc(-c3cc(C(=O)N[C@H](C)c4nc5cnccc5o4)c(OC)cc3C)c(F)c12	7.40	8.00
CNC(=O)c1c(-c2ccc(F)cc2)oc2ccc(-c3cc(C(=O)NC4(c5nc6ccncc6o5)CC4)c(OC)cc3C)c(F)c12 [4-fluoro-2-(4-fluorophenyl)-5-(4-methoxy-2-methyl-5-(1-(oxazolo[5,4-c]pyridin-2-yl)cyclopropylcarbamoyl)phenyl)-N-methylbenzofuran-3-carboxamide]	7.70	8.40
CNC(=O)c1c(-c2ccc(F)cc2)oc2ccc(-c3cc(C(=O)NC4(c5nc6cnccc6o5)CC4)cc(F)c3C)c(F)c12 [4-fluoro-5-(3-fluoro-2-methyl-5-(1-(oxazolo[4,5-c]pyridin-2-yl)cyclopropylcarbamoyl)phenyl)-2-(4-fluorophenyl)-N-methylbenzofuran-3-carboxamide]	7.70	8.22
CNC(=O)c1c(-c2ccc(F)cc2)oc2ccc(-c3cc(C(=O)NC4(c5nc6cnccc6o5)CC4)cc(F)c3C)cc12 [5-(3-fluoro-2-methyl-5-(1-(oxazolo[4,5-c]pyridin-2-yl)cyclopropylcarbamoyl)phenyl)-2-(4-fluorophenyl)-N-methylbenzofuran-3-carboxamide]	7.70	8.52
CNC(=O)c1c(-c2ccc(F)cc2)oc2ccc(-c3cc(C(=O)NC4(c5ccc6ncccc6n5)CC4)cc(F)c3C)c(F)c12 [5-(5-(1-(1,5-naphthyridin-2-yl)cyclopropylcarbamoyl)-3-fluoro-2-methylphenyl)-4-fluoro-2-(4-fluorophenyl)-N-methylbenzofuran-3-carboxamide]	7.15	7.00

— US8354410B2 (Bristol-Meyers Squibb Company, priority 2010, dated 2013)
